Assay results from patent publication US5919784A, “Heterocyclic aminomethyl compounds” (Adir Et Compagnie, priority 1996, dated 1999).
Counter-ions that a name gives are not always drawn.

Tests used:
[1] = molecular target: T1, human D4.4 receptor (Homo sapiens, UniProt P21917); experiment: Antagonism at human D4.4 receptors, [35S]GTPγS binding (G protein activation) stimulated by dopamine; type: biochemical; conditions: antagonism of dopamine-stimulated [35S]GTPγS binding; antagonist preincubated with fixed concentration of dopamine 30 min; CHO membranes; read-out: Kb (antagonist potency constant)
T1 construct: purchased Receptor Biology Inc. (Md., USA); host or cells: CHO cells (transfected), membranes
T1 sequence (P21917 1-419): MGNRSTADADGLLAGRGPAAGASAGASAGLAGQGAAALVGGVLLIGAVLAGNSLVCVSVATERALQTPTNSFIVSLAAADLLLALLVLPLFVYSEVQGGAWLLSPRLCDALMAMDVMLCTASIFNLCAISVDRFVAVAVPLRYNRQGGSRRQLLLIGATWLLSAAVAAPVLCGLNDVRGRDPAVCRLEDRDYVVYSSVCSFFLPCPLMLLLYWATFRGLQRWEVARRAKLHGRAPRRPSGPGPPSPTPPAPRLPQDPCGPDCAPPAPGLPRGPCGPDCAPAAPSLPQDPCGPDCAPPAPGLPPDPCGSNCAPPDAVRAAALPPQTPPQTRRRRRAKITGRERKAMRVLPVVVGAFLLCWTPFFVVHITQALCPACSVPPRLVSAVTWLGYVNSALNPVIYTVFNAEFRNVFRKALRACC
Protocol: The efficacy was determined by measuring the activation of G proteins by stimulating the binding of [^35 S]GTPγS (NEN, Les Ulis, France). The membranes prepared from CHO cells transfected with the human D4.4 receptor were purchased from Receptor Biology Inc. (Md., USA). The membranes (50 μg of membrane protein) are incubated in triplicate with 0.1 nM [^35 S]GTPγS and the cold ligand in a final volume of 0.5 ml for 20 min at 25° C. The incubation buffer contains 20 mM HEPES (pH 7.4), 3 μM GDP, 3 mM MgCl2 and 100 mM NaCl. At the end of the incubation, the incubation medium is filtered through WHATMAN GF/B filters impregnated with water and washed three times with 2 ml of cooled buffer. The radioactivity retained on the filters is determined by liquid scintillation counting. The binding isotherms are analyzed by nonlinear regression using `PRISM` software (GraphPad Software Inc., S. Diego, USA) to determine EC50 and efficacy (Emax) values. The efficacy is expressed as a percentage of the stimulation of the binding of [^35 S]GTPγS induced by dopamine.
For the tests of antagonism, the membranes are preincubated with the antagonist at a fixed concentration of dopamine for 30 min before adding the [^35 S]GTPγS. […]
in which [Antagonist] is the antagonist concentration and EC50 is the EC50 determined in the absence of antagonist (dopamine alone).

[2] = system: D4 receptors; conditions: literature; cited from earlier work

Row | Kb [1] [nM] | SMILES | affinity for the D4 receptors (in words) [2]
1 | 2.39 ± 1.1 | COc1ccccc1N1CCN(Cc2ccc3c(c2)sc(=O)n3C)CC1 [Example 1, 3-METHYL-6-[(4-(2-METHOXYPHENYL)-1-PIPERAZINYL)METHYL]-BENZOTHIAZOLINONE HYDROCHLORIDE] | 
2 | 16.1 ± 5 | Cn1c(=O)sc2cc(CN3CCN(c4ccccc4F)CC3)ccc21 [Example 3, 3-METHYL-6-[(4-(2-FLUOROPHENYL)-1-PIPERAZINYL)METHYL]-BENZOTHIAZOLINONE] | 
3 |  | CN1CCN(C2=Nc3cc(Cl)ccc3Nc3ccccc32)CC1 [clozapine] | high affinity
4 |  | NC[C@H](O)c1ccc(O)c(O)c1 [noradrenaline] | high affinity
